Earlier results in patent US11628197B2, “Methods and compounds for treating effects of COVID-19 disease” (priority 2020, dated 2023).

How the values were obtained:
COVID-19 = details: study of 243 subjects
COVID-19 disease = details: US Veterans Administration hospitals, France, China and Brazil

## Tocilizumab: humanized monoclonal antibody targeting IL-6 receptors
COVID-19
  Efficacy for preventing intubation or death: failed to show efficacy

## CCN(CCO)CCCC(C)Nc1ccnc2cc(Cl)ccc12 (stereo not drawn) [hydroxycholoroquine]
COVID-19 disease
  Therapeutic effects after clinical testing: failed to produce desired therapeutic effects

## CCN(CC)CCCC(C)Nc1ccnc2cc(Cl)ccc12 (stereo not drawn) [chloroquine]
COVID-19 disease
  Therapeutic effects after clinical testing: failed to produce desired therapeutic effects
